IC50 and EC50 data for 20 compounds are collected here from patent publication US8377943B2, “2,4-diaminopyrimidine derivates as PTK2-inhibitors for the treatment of abnormal cell growth” (Boehringer Ingelheim International GmbH, priority 2008, dated 2013).

One test concerns the target T1, PTK2 (Homo sapiens, UniProt Q05397).
T1 construct: purchased Invitrogen PV3832
Description: PTK2 Enzyme Test (DELFIA assay, poly-Glu-Tyr substrate). Type of test: biochemical. Conditions: active PTK2 enzyme, 50 μM ATP in ATP Mix, 1 h pre-incubation. On the procedure: This test uses active PTK2 enzyme (Invitrogen Code PV3832) and poly-Glu-Tyr (4:1, Sigma P-0275) as the kinase substrate. The kinase activity is detected by means of the phosphorylation of the substrate in a DELFIA™ assay. The phosphorylated substrate is detected with the Europium-labelled phosphotyrosine antibody PY20 (Perkin Elmer, No.: AD0038).
In order to determine concentration-activity curves with PTK2-inhibitors the compounds are serially diluted in 10% DMSO/H2O and 10 μL of each dilution are dispensed per well in a 96-well microtitre plate (clear U-shaped base plate, Greiner No. 650101) (the inhibitors are tested in duplicates) and mixed with 10 μL/well of PTK2 kinase (0.01 μg/well). PTK2 kinase is diluted accordingly beforehand with kinase dilution buffer (20 mM TRIS/HCl pH 7.5, 0.1 mM EDTA, 0.1 mM EGTA, 0.286 mM sodium orthovanadate, 10% glycerol with the addition of freshly prepared BSA (fraction V 1 mg/mL) and DTT (1 mM)). The test compound and the PTK2 kinase are pre-incubated for 1 h at RT and shaken at 500 rpm. Then 20 μL ATP Mix (30 mM TRIS/HCl pH 7.5, 0.02% Brij, 0.2 mM sodium orthovanadate, 10 mM magnesium acetate, 0.1 mM EGTA, 1× Phosphatase Inhibitor Cocktail 1 (Sigma, No.: P2850), 50 μM ATP (Sigma, No.: A3377; 15 mM stock solution)) are added. The reaction is started by the addition of 10 μL/well of poly (Glu,Tyr) substrate (25 μg/well poly (Glu,Tyr), 0.05 μg/well biotinylated poly (Glu,Tyr) dissolved in 250 mM TRIS/HCl pH 7.5, 9 mM DTT)—the final concentration of DMSO is 2%. After 1 h kinase reaction (the plates are shaken at 500 rpm), the reaction is stopped by the addition of 12 μL/well of 100 mM EDTA, pH 8. And shaken for a further 5 min at RT (500 U/min).
55 μL of the reaction mixture are transferred into a streptavidin plate (Strepta Well High Bind (transparent, 96-well) made by Roche, No.: 11989685001) and incubated for 1 h at RT (shaking at 500 rpm). Then the microtitre plate is washed three times with 200 μL/well D-PBS (Invitrogen, No.:14190). 100 μL of 1:2000 diluted DELFIA Eu-N1 Anti-Phosphotyrosine PY20 antibody (Perkin Elmer, No.: AD0038, 1:2000 diluted in DELFIA test buffer (Perkin Elmer, No.: 1244-111)) is then added and it is incubated for 1 h at RT (shaking at 500 rpm). Then the plate is washed three times with 200 μL/well DELFIA washing buffer (Perkin Elmer, No.: 1244-114), 200 μL/well strengthening solution (Perkin Elmer, No.: 1244-105) is added and the whole is incubated for 10 min at RT (shaking at 300 rpm).
The time-delayed europium fluorescence is then measured in a microtitre plate reader (Victor, Perkin Elmer). The positive control consists of wells that contain solvent (2% DMSO in test buffer) and display uninhibited kinase activity. Wells that contain test buffer instead of enzyme act as a control for the background kinase activity.
The IC50 values are determined from concentration-activity analyses by iterative calculation using a sigmoidal curve analysis algorithm (FIFTY, based on GraphPAD Prism Version 3.03) with a variable Hill coefficient.

Test [1] concerns the target T2, PTK2-phosphorylation at tyrosine 397 (pY397) (Homo sapiens, UniProt Q05397).
T2 construct: endogenous in cells; host or cells: PC-3 (ATCC CRL-1435)
As to the kind of experiment: Phospho-PTK2 (pY397) Assay in PC-3 cells. It counts as cell-based. Conditions: PC-3 prostate carcinoma cells, 2 h incubation; read-out: PC3pPTK2 Y397 EC50. On the procedure: This cellular test is used to determine the influence of PTK2-inhibitors on the state of the PTK2-phosphorylation at tyrosine 397 (pY397).
PC-3 cells (prostate carcinoma, ATCC CRL-1435) are grown in cell culture flasks (175 cm^2) with F12 Kaighn's Medium (Gibco, No.: 21127) with the addition of 10% foetal calf serum (Invitrogen, No.: 16000-044). The cultures are incubated in the incubator at 37° C. and 5% CO2 and run twice a week.
For the test, 2×10^4 cells pro well/[…] are plated out in 96-well microtitre plates (Costar, No.: 3598) and incubated overnight in the incubator at 37° C. and 5% CO2. The test compounds (10 μL from serial dilution) are added the next day. The concentration of the test compounds usually covers a range of 50 μM and 0.8 nM. The test compounds (stock solution: 10 mM in 100% DMSO) are diluted in medium/medium 10% DMSO such that the final concentration is 1% DMSO. The cells are then incubated in the incubator at 37° C. and 5% CO2 for 2 h. Then the culture supernatant is removed and the cells are fixed with 150 μL 4% formaldehyde in D-PBS for 20 min at RT. The cell lawn is washed five times with 200 μL 0.1% Triton X-100 in D-PBS for 5 min in each case and then incubated for 90 min with blocking buffer (5% skimmed milk powder (Maresi Fixmilch) in TBST (25 mM Tris/HCl, pH 8.0, 150 mM NaCl, 0.05% Tween 20). The blocking buffer is replaced by 50 μL of the first antibody anti-phospho PTK2 [pY397] rabbit monoclonal (Invitrogen/Biosource, No.: 44-625G), which is diluted 1:200 in blocking buffer. For control purposes, alternatively a PTK2 [total] antibody (clone 4.47 mouse monoclonal, Upstate, No.: 05-537), diluted 1:400 in blocking buffer is used. This incubation is carried out at 4° C. overnight. Then the cell lawn is washed five times with 100 μL of 0.1% Tween in D-PBS for 5 min in each case and 50 μL/well of second antibody are added. In order to detect bound phospho-PTK2 [pY397] antibody a goat-anti-rabbit antibody is used which is coupled with horseradish peroxidase (Dako, No.: P0448; 1:500 dilution in blocking buffer). In order to detect bound PTK2 [total]-antibodies a rabbit-anti-mouse antibody is used, which is also coupled with horseradish peroxidase (Dako, No.: PO161; 1:1000 dilution in blocking buffer). This incubation is carried out for 1 h at RT with gentle shaking. The cell lawn is then again washed five times with 100 μL of 0.1% Tween in D-PBS for 5 min in each case. […] The EC50 values are determined from concentration-activity analyses by iterative calculation with the aid of a sigmoidal curve analysis algorithm (FIFTY, based on GraphPAD Prism Version 3.03) with a variable Hill coefficient.

T2 sequence (Q05397 whole entry): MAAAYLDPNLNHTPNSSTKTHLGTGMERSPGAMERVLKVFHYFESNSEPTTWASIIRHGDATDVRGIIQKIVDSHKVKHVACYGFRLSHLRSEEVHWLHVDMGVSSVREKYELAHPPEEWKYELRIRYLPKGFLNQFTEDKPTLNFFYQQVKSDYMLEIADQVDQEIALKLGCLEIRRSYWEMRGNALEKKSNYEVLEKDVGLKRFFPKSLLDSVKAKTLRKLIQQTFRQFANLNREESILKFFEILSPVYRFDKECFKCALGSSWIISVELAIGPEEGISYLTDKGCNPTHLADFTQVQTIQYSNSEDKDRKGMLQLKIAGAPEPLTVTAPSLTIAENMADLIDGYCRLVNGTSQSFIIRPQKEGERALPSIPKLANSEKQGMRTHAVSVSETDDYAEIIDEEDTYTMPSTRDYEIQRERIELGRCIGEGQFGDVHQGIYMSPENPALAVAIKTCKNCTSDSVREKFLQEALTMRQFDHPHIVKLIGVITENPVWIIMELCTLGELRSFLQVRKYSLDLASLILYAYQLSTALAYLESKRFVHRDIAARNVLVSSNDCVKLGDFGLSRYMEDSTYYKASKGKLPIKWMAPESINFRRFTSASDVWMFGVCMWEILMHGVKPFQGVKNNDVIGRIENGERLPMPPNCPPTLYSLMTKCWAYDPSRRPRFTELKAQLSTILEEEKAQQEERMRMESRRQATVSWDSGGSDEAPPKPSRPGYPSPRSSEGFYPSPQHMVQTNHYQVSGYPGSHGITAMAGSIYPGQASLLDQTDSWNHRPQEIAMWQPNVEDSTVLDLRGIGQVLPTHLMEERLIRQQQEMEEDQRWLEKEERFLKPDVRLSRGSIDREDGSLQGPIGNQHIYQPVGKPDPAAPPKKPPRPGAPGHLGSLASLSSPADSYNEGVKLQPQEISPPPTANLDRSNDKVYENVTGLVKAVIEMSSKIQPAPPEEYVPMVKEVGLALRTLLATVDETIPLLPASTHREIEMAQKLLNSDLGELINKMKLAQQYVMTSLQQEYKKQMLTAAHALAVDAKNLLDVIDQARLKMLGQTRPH
T1 sequence (Q05397 whole entry): as above

`CCN1CCC(NC(=O)c2cc(OC)c(Nc3ncc(C(F)(F)F)c(NCc4ccc(C)cc4N(C)S(C)(=O)=O)n3)cc2F)CC1` [Example 1]: at PTK2, the IC50 (usually the midpoint of a concentration-inhibition curve) is 2 nM. The EC50 (as a rule, the concentration that produces a half-maximal response) in test [1] stood at 0.05 nM. `COc1cc(CN(C)C)ccc1Nc1ncc(C(F)(F)F)c(NCc2ccc(C)cc2N(C)S(C)(=O)=O)n1` [Example 3] gave an IC50 on PTK2 of 1 nM. For the same compound, in test [1], the concentration for a half-maximal effect (EC50) came out at 0.11 nM.

As to `COc1cc(C(=O)NCCN(C)C)ccc1Nc1ncc(C(F)(F)F)c(NCc2ccc(C)cc2N(C)S(C)(=O)=O)n1` [Example 4], half-maximal inhibition against PTK2 (IC50) was put at 1 nM. Also, in test [1], the half-maximal effective concentration (EC50) stood at 0.11 nM. The matching figures for `COc1cc(CN(C)C)ccc1Nc1ncc(C(F)(F)F)c(NCc2ccc(F)cc2N(C)S(C)(=O)=O)n1` [Example 5]: 0.86 nM and 0.12 nM. At PTK2, `COc1cc(C(=O)NC[C@@H](C)N2CCCC2)ccc1Nc1ncc(C(F)(F)F)c(NCc2ccc(C)cc2N(C)S(C)(=O)=O)n1` [Example 6] yielded an IC50 of 3 nM. The EC50 in test [1] is 0.13 nM.

The compound `COc1cc(C(=O)NC2CCCN(C)C2)ccc1Nc1ncc(C(F)(F)F)c(NCc2ccc(C)cc2N(C)S(C)(=O)=O)n1` (stereo not shown) [Example 7] returned an IC50 on PTK2 of 3 nM. For the same compound, the half-maximal effective concentration (EC50) in test [1] came to 0.14 nM. In the same order, the values of `CCN1CCC(NC(=O)c2ccc(Nc3ncc(C(F)(F)F)c(NCc4ccc(C)cc4N(C)S(C)(=O)=O)n3)c(OC)c2)CC1` [Example 8] are 2 nM and 0.14 nM. `COc1cc(C(=O)NC2CCN(C(C)=O)CC2)ccc1Nc1ncc(C(F)(F)F)c(NCc2ccc(C)cc2N(C)S(C)(=O)=O)n1` [Example 9] had an IC50 on PTK2 of 6 nM. In test [1], the EC50 was 0.14 nM. The compound `COc1cc(C(=O)N[C@@H]2CCCN(C(C)C)C2)ccc1Nc1ncc(C(F)(F)F)c(NCc2ccc(C)cc2N(C)S(C)(=O)=O)n1` [Example 10] displayed an IC50 against PTK2 of 2 nM. In addition, the EC50 in test [1] stood at 0.14 nM. With `COc1cc(C(=O)NC2CC(C)(C)N(C)C(C)(C)C2)ccc1Nc1ncc(C(F)(F)F)c(NCc2ccc(C)cc2N(C)S(C)(=O)=O)n1` [Example 11], on PTK2, 4 nM corresponded to half-maximal inhibition (IC50). The 50% effective concentration (EC50) in test [1] came to 0.16 nM. On to `CCN(CC)CCNC(=O)c1ccc(Nc2ncc(C(F)(F)F)c(NCc3ccc(C)cc3N(C)S(C)(=O)=O)n2)c(OC)c1` [Example 12], for which, on PTK2, the IC50 worked out at 2 nM. In test [1], the EC50 came to 0.16 nM.

Take `COc1cc(C(=O)NCCn2ccnc2)ccc1Nc1ncc(C(F)(F)F)c(NCc2ccc(C)cc2N(C)S(C)(=O)=O)n1` [Example 13]: inhibition on PTK2 was half-maximal at 2 nM (IC50). Also, in test [1], the EC50 stood at 0.16 nM. In the same order, the values of `COCCNC(=O)c1ccc(Nc2ncc(C(F)(F)F)c(NCc3ccc(C)cc3N(C)S(C)(=O)=O)n2)c(OC)c1` [Example 14] are 4 nM and 0.17 nM. The matching figures for `COc1cc(C(=O)NC2CCN(C(C)C)CC2)ccc1Nc1ncc(C(F)(F)F)c(NCc2ccc(C)cc2N(C)S(C)(=O)=O)n1` [Example 15]: 3 nM and 0.18 nM.

For `CNC(=O)c1cc(OC)c(Nc2ncc(C(F)(F)F)c(NCc3ccc(OC)cc3N(C)S(C)(=O)=O)n2)cc1F` [Example 127], the IC50 against PTK2 turned out to be 4 nM. On PTK2, `COc1ccc(CNc2nc(Nc3cc(F)c(C(=O)NC(C)(C)C)cc3OC)ncc2C(F)(F)F)c(N(C)S(C)(=O)=O)c1` [Example 128] registered a half-inhibitory concentration (IC50) of 22 nM.

For `Cc1ccc(CNc2nc(Nc3cc(F)c(N4CCNCC4)cc3F)ncc2C(F)(F)F)c(N(C)S(C)(=O)=O)c1` [Example 129], on PTK2, the IC50 was 1 nM.

Compound `CNC(=O)c1ccc(Nc2ncc(C(F)(F)F)c(NCc3ccc(C)cc3N(C)S(C)(=O)=O)n2)c(C)c1` [Example 130] yielded an IC50 against PTK2 of 1 nM.

`COc1cc(C(=O)N[C@@H]2CCN(C)C[C@H]2F)ccc1Nc1ncc(C(F)(F)F)c(NCc2ccc(C)cc2N(C)S(C)(=O)=O)n1` [Example 131]: the IC50 against PTK2 stood at 4 nM. On the same count and under the same terms, in the case of `CCc1cc(C(=O)NC2CCOCC2)ccc1Nc1ncc(C(F)(F)F)c(NCc2ccc(C)cc2N(C)S(C)(=O)=O)n1` [Example 132] it was 4 nM.
